Nine compounds from patent USRE44733E1, “6-mercapto-cyclodextrin derivatives:reversal agents for drug-induced neuromuscular block” (Merck Sharp & Dohme B.V., priority 1999, dated 2014) can be followed below.

In the test the test system is neuromuscular block, induced by the muscle relaxant rocuronium bromide (Roc). In words: Reversal of neuromuscular blockade in anaesthetized guinea pigs in vivo. The following applies: for concentration at maximum reversal (at conc.) / % max reversal: anaesthetized guinea pigs, rocuronium bromide steady-state block; for concentration at maximum reversal (at conc.): dose of reversal agent at which % max reversal was seen; for % max reversal: maximum reversal; for ED50: dose producing 50% reversal of steady-state neuromuscular block: anaesthetized male Dunkin-Hartley guinea pigs, steady-state block of 85-90% by continuous rocuronium bromide infusion, reversal agent given by jugular vein catheter, M. gastrocnemius contractions. On the procedure:
Reversal of Neuromuscular Blockade in Anaesthetized Guinea Pigs in vivo
Male Dunkin-Hartley guinea pigs (bodyweight: 600-900 g) were anaesthetized by i.p. administration of 10 mg/kg pentobarbitone and 1000 mg/kg urethane. After tracheotomy, the animals were artificially ventilated using a Harvard small animal ventilator. A catheter was placed into the carotid artery for continuous monitoring of arterial blood pressure and the taking of blood samples for blood gas analysis. Heart rate was derived from the blood pressure signal. The sciatic nerve was stimulated (rectangular pulses of 0.5 ms duration at 10 s (0.1 Hz) intervals at a supramaximal voltage, using a Grass S88 Stimulator) and the force of M. gastrocnemius contractions was measured using a Grass FT03 force-displacement transducer. Contractions, blood pressure and heart rate were recorded on a multichannel Grass 7D recorder. Catheters were placed in both jugular veins. One catheter was used for the continuous infusion of a neuromuscular blocking agent. The infusion rate of the neuromuscular blocking agent was increased until a steady-state block of 85-90% was obtained. The other catheter was used for administration of increasing doses of the reversal agent. During continuous infusion of the neuromuscular blocking agent, single doses of increasing concentration of reversal agent were given. At the end of the experiment, the measured force of muscle contractions was plotted against the concentration of reversal agent, and using regression analysis techniques, the 50% reversal concentration was calculated. Results for the reversal of the neuromuscular block, induced by the muscle relaxant rocuronium bromide (Roc), by the 6-mercapto-cyclodextrin derivatives of Examples 1-19 are presented in Table I. For comparison, the reversal activity of the parent compounds β-cyclodextrin and γ-cyclodextrin are included as well.

As to `OCCOCCSCC1OC2OC3C(CSCCOCCO)OC(OC4C(CSCCOCCO)OC(OC5C(CSCCOCCO)OC(OC6C(CSCCOCCO)OC(OC7C(CSCCOCCO)OC(OC8C(CSCCOCCO)OC(OC9C(CSCCOCCO)OC(OC1C(O)C2O)C(O)C9O)C(O)C8O)C(O)C7O)C(O)C6O)C(O)C5O)C(O)C4O)C(O)C3O` (stereo not drawn) [example 11, 6-Per-deoxy-6-per(5-hydroxy-3-oxa-pentyl)thio-γ-cyclodextrin], the “concentration at maximum reversal (at conc.)” value (“concentration” below) is “(2.1) μmol · kg^−1”, the “% max reversal” value came to 92% and the “ED50: dose producing 50% reversal of steady-state neuromuscular block” value (shortened to “ED50: dose producing 50% reversal”) is 0.47 µmol/kg.
In the same order, the values of `O=C([O-])CCCSCC1OC2OC3C(CSCCCC(=O)[O-])OC(OC4C(CSCCCC(=O)[O-])OC(OC5C(CSCCCC(=O)[O-])OC(OC6C(CSCCCC(=O)[O-])OC(OC7C(CSCCCC(=O)[O-])OC(OC8C(CSCCCC(=O)[O-])OC(OC1C(O)C2O)C(O)C8O)C(O)C7O)C(O)C6O)C(O)C5O)C(O)C4O)C(O)C3O.[Na+].[Na+].[Na+].[Na+].[Na+].[Na+].[Na+]` (stereo not drawn) [example 16, 6-Per-deoxy-6-per(3-carboxypropyl)thio-β-cyclodextrin, Sodium Salt] are “(3.2) μmol · kg^−1”, 100% and 0.5 µmol/kg.
Take `O=C([O-])c1ccc(SCC2OC3OC4C(CO)OC(OC5C(CO)OC(OC6C(CO)OC(OC7C(CO)OC(OC8C(CO)OC(OC9C(CO)OC(OC%10C(CO)OC(OC2C(O)C3O)C(O)C%10O)C(O)C9O)C(O)C8O)C(O)C7O)C(O)C6O)C(O)C5O)C(O)C4O)cc1.[Na+]` (stereo not drawn) [example 1, 6-mono-Deoxy-6-mono-(4-carboxyphenyl)thio-γ-cyclodextrin, Sodium Salt]: the “concentration” value was “(8.0) μmol · kg^−1”, the “% max reversal” value is 102% and the “ED50: dose producing 50% reversal” value was 0.94 µmol/kg.
Turning to `O=C([O-])Cc1ccc(SC[C@H]2O[C@@H]3O[C@H]4[C@H](O)[C@@H](O)[C@@H](O[C@H]5[C@H](O)[C@@H](O)[C@@H](O[C@H]6[C@H](O)[C@@H](O)[C@@H](O[C@H]7[C@H](O)[C@@H](O)[C@@H](O[C@H]8[C@H](O)[C@@H](O)[C@@H](O[C@H]9[C@H](O)[C@@H](O)[C@@H](O[C@H]%10[C@H](O)[C@@H](O)[C@@H](O[C@H]2[C@H](O)[C@H]3O)O[C@@H]%10CSc2ccc(CC(=O)[O-])cc2)O[C@@H]9CSc2ccc(CC(=O)[O-])cc2)O[C@@H]8CSc2ccc(CC(=O)[O-])cc2)O[C@@H]7CSc2ccc(CC(=O)[O-])cc2)O[C@@H]6CSc2ccc(CC(=O)[O-])cc2)O[C@@H]5CSc2ccc(CC(=O)[O-])cc2)O[C@@H]4CSc2ccc(CC(=O)[O-])cc2)cc1.[Na+].[Na+].[Na+].[Na+].[Na+].[Na+].[Na+].[Na+]` [example 9, 6-Per-deoxy-6-per-(4-carboxymethylphenyl)thio-γ-cyclodextrin, Sodium Salt], the “concentration” value is reported as “(0.50) μmol · kg^−1”, the “% max reversal” value amounted to 100% and the “ED50: dose producing 50% reversal” value was determined as 0.13 µmol/kg.
In the same order, the values of `OC[C@H]1O[C@@H]2O[C@H]3[C@H](O)[C@@H](O)[C@@H](O[C@H]4[C@H](O)[C@@H](O)[C@@H](O[C@H]5[C@H](O)[C@@H](O)[C@@H](O[C@H]6[C@H](O)[C@@H](O)[C@@H](O[C@H]7[C@H](O)[C@@H](O)[C@@H](O[C@H]8[C@H](O)[C@@H](O)[C@@H](O[C@H]9[C@H](O)[C@@H](O)[C@@H](O[C@H]1[C@H](O)[C@H]2O)O[C@@H]9CO)O[C@@H]8CO)O[C@@H]7CO)O[C@@H]6CO)O[C@@H]5CO)O[C@@H]4CO)O[C@@H]3CO` [γ-cyclodextrin, reference compound] are “(47) μmol · kg^−1”, 104% and 4 µmol/kg.
With `O=C([O-])c1cccc(SCC2OC3OC4C(CSc5cccc(C(=O)[O-])c5)OC(OC5C(CSc6cccc(C(=O)[O-])c6)OC(OC6C(CSc7cccc(C(=O)[O-])c7)OC(OC7C(CSc8cccc(C(=O)[O-])c8)OC(OC8C(CSc9cccc(C(=O)[O-])c9)OC(OC9C(CSc%10cccc(C(=O)[O-])c%10)OC(OC%10C(CSc%11cccc(C(=O)[O-])c%11)OC(OC2C(O)C3O)C(O)C%10O)C(O)C9O)C(O)C8O)C(O)C7O)C(O)C6O)C(O)C5O)C(O)C4O)c1.[Na+].[Na+].[Na+].[Na+].[Na+].[Na+].[Na+].[Na+]` (stereo not drawn) [example 3, 6-Per-deoxy-6-per-(3-carboxyphenyl)thio-γ-cyclodextrin, Sodium Salt], the “concentration” value was “(1.28) μmol · kg^−1”, the “% max reversal” value came out at 102% and the “ED50: dose producing 50% reversal” value came to 0.28 µmol/kg.
Turning to `O=C([O-])c1ccccc1SC[C@H]1O[C@@H]2O[C@H]3[C@H](O)[C@@H](O)[C@@H](O[C@H]4[C@H](O)[C@@H](O)[C@@H](O[C@H]5[C@H](O)[C@@H](O)[C@@H](O[C@H]6[C@H](O)[C@@H](O)[C@@H](O[C@H]7[C@H](O)[C@@H](O)[C@@H](O[C@H]8[C@H](O)[C@@H](O)[C@@H](O[C@H]9[C@H](O)[C@@H](O)[C@@H](O[C@H]1[C@H](O)[C@H]2O)O[C@@H]9CO)O[C@@H]8CO)O[C@@H]7CO)O[C@@H]6CO)O[C@@H]5CO)O[C@@H]4CO)O[C@@H]3CO.[Na+]` [example 2, 6mono-Deoxy-6-mono-(2-carboxyphenyl)thio-γ-cyclodextin, Sodium Salt], the “concentration” value is reported as “(11) μmol · kg^−1”, the “% max reversal” value turned out to be 93% and the “ED50: dose producing 50% reversal” value was 1.30 µmol/kg.
Take `OCC(CO)(CO)CSCC1OC2OC3C(CSCC(CO)(CO)CO)OC(OC4C(CSCC(CO)(CO)CO)OC(OC5C(CSCC(CO)(CO)CO)OC(OC6C(CSCC(CO)(CO)CO)OC(OC7C(CSCC(CO)(CO)CO)OC(OC8C(CSCC(CO)(CO)CO)OC(OC9C(CSCC(CO)(CO)CO)OC(OC1C(O)C2O)C(O)C9O)C(O)C8O)C(O)C7O)C(O)C6O)C(O)C5O)C(O)C4O)C(O)C3O` (stereo not drawn) [example 18, 6-Per-deoxy-6-per(2,2-di(hydroxymethyl)-3-hydroxy-propyl)thio-γ-cyclodextin]: the “concentration” value is listed as “(4.9) μmol · kg^−1”, the “% max reversal” value is reported as 63% and the “ED50: dose producing 50% reversal” value was 2.9 µmol/kg.
As to `O=C([O-])c1ccccc1C(=O)NCCSC[C@H]1O[C@@H]2O[C@H]3[C@H](O)[C@@H](O)[C@@H](O[C@H]4[C@H](O)[C@@H](O)[C@@H](O[C@H]5[C@H](O)[C@@H](O)[C@@H](O[C@H]6[C@H](O)[C@@H](O)[C@@H](O[C@H]7[C@H](O)[C@@H](O)[C@@H](O[C@H]8[C@H](O)[C@@H](O)[C@@H](O[C@H]9[C@H](O)[C@@H](O)[C@@H](O[C@H]1[C@H](O)[C@H]2O)O[C@@H]9CSCCNC(=O)c1ccccc1C(=O)[O-])O[C@@H]8CSCCNC(=O)c1ccccc1C(=O)[O-])O[C@@H]7CSCCNC(=O)c1ccccc1C(=O)[O-])O[C@@H]6CSCCNC(=O)c1ccccc1C(=O)[O-])O[C@@H]5CSCCNC(=O)c1ccccc1C(=O)[O-])O[C@@H]4CSCCNC(=O)c1ccccc1C(=O)[O-])O[C@@H]3CSCCNC(=O)c1ccccc1C(=O)[O-].[Na+].[Na+].[Na+].[Na+].[Na+].[Na+].[Na+].[Na+]` [example 12, 6-Per-deoxy-6-per[(2(2-carboxybenzoyl)amino)ethyl]thio-γ-cyclodextrin, Sodium Salt], the “concentration” value was “(0.48) μmol · kg^−1”, the “% max reversal” value is 95% and the “ED50: dose producing 50% reversal” value is 0.085 µmol/kg.
